In ChEMBL document CHEMBL1131924, “Synthesis and biological evaluation of 1alpha,24-dihydroxy-25-nitrovitamin D3” (1999):

Legend:
[1] = test system: HL-60; assay: Cell differentiation activity towards HL-60 cells assessed in terms of 4-nitro-blue tetrazolium (NBT) reactivity; format: functional, Homo sapiens
[2] = target: T1, Vitamin D3 receptor (Gallus gallus) (UniProt O42392); assay: Relative binding affinity for chick intestinal Vitamin D3 receptor (VDR)
T1 sequence (whole entry): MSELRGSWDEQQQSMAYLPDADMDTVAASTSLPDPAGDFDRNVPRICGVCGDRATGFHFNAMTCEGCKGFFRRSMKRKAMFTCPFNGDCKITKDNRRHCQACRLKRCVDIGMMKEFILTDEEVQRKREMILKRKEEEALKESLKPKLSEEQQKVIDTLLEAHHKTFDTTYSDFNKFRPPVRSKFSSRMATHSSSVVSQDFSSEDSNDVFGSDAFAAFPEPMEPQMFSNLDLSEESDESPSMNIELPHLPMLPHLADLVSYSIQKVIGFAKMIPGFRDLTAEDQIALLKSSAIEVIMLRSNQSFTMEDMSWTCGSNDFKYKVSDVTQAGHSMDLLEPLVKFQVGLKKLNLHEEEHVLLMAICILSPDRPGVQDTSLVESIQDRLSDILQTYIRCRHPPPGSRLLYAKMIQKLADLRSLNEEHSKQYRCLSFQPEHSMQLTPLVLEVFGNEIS

SMILES	Activity [1]	Binding affinity [2]
C=C1/C(=C\C=C2/CCC[C@]3(C)[C@@H]([C@H](C)CC[C@H](O)C(C)(C)[N+](=O)[O-])CC[C@@H]23)C[C@@H](O)C[C@@H]1O	12	10
C=C1/C(=C\C=C2/CCC[C@]3(C)[C@@H]([C@H](C)CC[C@@H](O)C(C)(C)[N+](=O)[O-])CC[C@@H]23)C[C@@H](O)C[C@@H]1O	182	93
C=C1/C(=C\C=C2/CCC[C@]3(C)[C@@H]([C@H](C)CCCC(C)(C)O)CC[C@@H]23)C[C@@H](O)C[C@@H]1O [CALCITRIOL]	100	100
C=C1/C(=C\C=C2/CCC[C@]3(C)[C@@H]([C@H](C)CC[C@@H](O)C(C)C)CC[C@@H]23)C[C@@H](O)C[C@@H]1O [TACALCITOL]	182	131
C=C1/C(=C\C=C2/CCC[C@]3(C)[C@@H]([C@H](C)CC[C@H](O)C(C)C)CC[C@@H]23)C[C@@H](O)C[C@@H]1O	18	10
